Measurements as given in patent publication US20100022568A1, “ENDOTHELIN RECEPTOR ANTAGONISTS FOR EARLY STAGE IDIOPATHIC PULMONARY FIBROSIS” (Actelion Pharmaceeuticals Ltd., priority 2006, published 2010).
Entries after “also recorded” stand apart in the source; their conditions may differ. Read-outs that look alike come from different tables or passages of the source. Square brackets hold non-standard residues; d marks the D form. Peptide text beside a SMILES is read from it.

Assays:
diabetic rat kidney = settings: cited from earlier work
[1] = test system: Swiss 3T3 mouse embryonic fibroblasts; assay: cells
Description: Experiments were performed on the mouse embryonic fibroblast cell line Swiss 3T3 (Deutsche Sammlung fur Mikroorganismen und Zellen, DSMZ ACC 173). Cells were starved for 24 h in serum-free medium or medium containing 0.5% serum followed by a 24 h incubation with endothelin-1 at a concentration giving approximately 50% or preferably 80% of its maximal efficacy, in presence either of vehicle or of an antagonist at increasing concentrations or an antagonist in combination with Pirfenidone.
Potential cytotoxic effects are excluded by assessing fibroblast proliferation using the MTS reagent (21). Collagen neo-synthesis by fibroblasts is assessed by measuring ^3H-proline incorporation (22).
Using a concentration of ET-1 of 1 nM (EC80), the below mentioned endothelin receptor antagonists were analyzed for antagonistic activity on ET-1-induced collagen neo-synthesis.

rat mesangial cells = settings: cited from earlier work
patients with IPF = assay: BUILD-1 clinical study (phase II/III, placebo-controlled) in IPF patients; assay type: in vivo, human
Description: BUILD 1 study was a multicentric, randomized, double-blind, placebo-controlled, phase II/III study in IPF patients. […] Treatment failure was defined either as worsening of PFTs or the occurrence of an acute decompensation of IPF. PFT worsening was defined as 2 out of the following 3 criteria • Decrease from baseline ≧10% in Forced vital capacity (FVC) • Decrease from baseline ≧15% in diffusion capacity for carbon monoxide (DLCO). • Decrease from baseline ≧4% in O2 saturation (blood gas) at rest or increase from baseline ≧8 mmHg in alveolar capillary O2 gradient (A-a PO2).
Main inclusion criteria: proven IPF diagnosis <3 years duration, either via a surgical lung biopsy or when not done according to the ATS/ERS consensus criteria (see above). The main inclusion criteria were the presence of FVC ≧50% of predicted value and DLCO ≧30% of predicted value.
The planned treatment period 1 was 12 months. Patients were evaluated at regular interval up to End-of-Period 1 (Month 12 months) and up to the End-of-Study i.e. when the last patient has his/her last visit. The 6MWT and pulmonary function tests were evaluated at each visit.
The analyses were run by a single radiologist who was blinded to the group allocation. Each patient CT was scored for honeycomb as well as ground-glass from the 3 zones of each lung namely upper mid and lower zone. Increment for HC and ground-glass was rounded to the upper 5%.

[2] = test system: various animal models of fibrosis; settings: cited from earlier work
cell cultures = settings: cited from earlier work
human fibroblasts = settings: cited from earlier work
[3] = test system: norepinephrine-induced aortic remodeling and fibrosis; settings: cited from earlier work
[4] = Mus musculus, Swiss-3T3, read-out: IC50 on ET-1-induced collagen neo-synthesis in 3T3 fibroblasts
[5] = patients with surgical lung biopsy, N = 49

CC(C)C[C@H](NC(=O)N1CCCCCC1)C(=O)N[C@H](Cc1cn(C)c2ccccc12)C(=O)N[C@H](Cc1ccccn1)C(=O)O [FR1 39317]
Expression of collagen, laminin and TGF-β mRNA (diabetic rat kidney): attenuated

Cc1ccc(=O)n(-c2ccccc2)c1 [pirfenidone]
inhibition at 1000 µM ([1]; Mus musculus, Swiss-3T3, 24 h, read-out: Inhibitory effect on collagen neo-synthesis): 55%

COC(c1ccccc1)(c1ccccc1)[C@H](Oc1nc(C)cc(C)n1)C(=O)O [Ambrisentan]
IC50 [1, 4]: 79 nM

CC[C@H](C)[C@H](NC(=O)[C@H](CC(=O)O)NC(=O)[C@H](CC(C)C)NC(=O)[C@H](Cc1c[nH]cn1)NC(=O)[C@@H]1CSSC[C@H](N)C(=O)N[C@@H](CO)C(=O)N[C@H]2CSSC[C@H](NC(=O)[C@H](CCC(=O)O)NC(=O)[C@H](CCCCN)NC(=O)[C@H](CC(=O)O)NC(=O)[C@H](CCSC)NC(=O)[C@H](CC(C)C)NC(=O)[C@H](CO)NC(=O)[C@H](CO)NC2=O)C(=O)N[C@@H](C(C)C)C(=O)N[C@@H](Cc2ccc(O)cc2)C(=O)N[C@@H](Cc2ccccc2)C(=O)N1)C(=O)N[C@H](C(=O)N[C@@H](Cc1c[nH]c2ccccc12)C(=O)O)[C@@H](C)CC [ET-1, endothelin-1]
EC50 ([1]; read-out: EC50 (concentration of ET-1 giving 50% of maximal effect) on collagen neo-synthesis, Swiss 3T3 fibroblasts, 24 h incubation): 0.24 nM

CCCNS(=O)(=O)Nc1ncnc(OCCOc2ncc(Br)cn2)c1-c1ccc(Br)cc1 [Compound 1, propyl-sulfamic acid {5-(4-bromo-phenyl)-6-[2-(5-bromo-pyrimidin-2-yloxy)-ethoxy]-pyrimidine-4-yl}-amide]
IC50 [1, 4]: 114 nM

COc1ccccc1Oc1c(NS(=O)(=O)c2ccc(C)cn2)nc(-c2ccncc2)nc1OC [Avosentan]
IC50 [1, 4]: 330 nM

CC(C)C[C@@H]1NC(=O)[C@@H](C(C)C)NC(=O)[C@@H]2CCCN2C(=O)[C@@H](CC(=O)O)NC(=O)[C@@H](Cc2c[nH]c3ccccc23)NC1=O [BQ-123] (cyclo(L[dW][dD]P[dV]))
Fibronectin synthesis induced by ET-1 or angiotensin II (rat mesangial cells): decreased

Cc1cc2c(cc1CC(=O)c1sccc1S(=O)(=O)Nc1onc(C)c1Cl)OCO2 [Sitaxsentan]
IC50 [1, 4]: 369 nM

CC(=O)c1cc(C)cc(C)c1NC(=O)c1sccc1S(=O)(=O)Nc1onc(C)c1C [TBC3711]
IC50 ([1]; read-out: IC50 on ET-1-induced collagen neo-synthesis in 3T3 fibroblasts, ET-1 1 nM (EC80), n >= 2): 59 nM

COc1ccccc1Oc1c(NS(=O)(=O)c2ccc(C(C)(C)C)cc2)nc(-c2ncccn2)nc1OCCO [Bosentan]
Secondary endpoints related to death or disease worsening (patients with IPF; BUILD-1, IPF patients): showed efficacy
PFT score: occurrence of death or treatment failure at End-of-Period 1 (patients with IPF; all treated (n=71 bosentan), placebo 36.1%): 22.5%
Primary endpoint: exercise capacity (6MWT) at End-of-Period 1 (patients with IPF; all treated, bosentan target 125 mg b.i.d., 12 months): did not show an effect; also recorded: did not show improvement
PFTs scores at end of period 1: Improved (number of patients) (patients with IPF; [5]): 2
PFTs scores at end of period 1: Worsened (number of patients) (patients with IPF; [5]): 6
PFTs scores at end of period 1: Improved (percent of patients) (patients with IPF; patients with surgical lung biopsy, N = 49, 95% CL 0.5%, 14.0%, p 0.2424): 4.1%
PFTs scores at end of period 1: Worsened (percent of patients) (patients with IPF; patients with surgical lung biopsy, N = 49, 95% CL 4.6%, 24.8%): 12.2%
Prevention of clinical worsening in IPF patients with early disease with low or no honeycomb on HRCT lung scans (patients with IPF; post hoc analysis of BUILD 1 HRCT scans): mainly effective
Anti-fibrotic activity in vivo [2]: potent anti-fibrotic agent
IC50 [1, 4]: 214 nM
Effect on ET-1-induced collagen synthesis ([1]; bosentan 1 μM alone, 24 h): reverses ET-1 -induced collagen synthesis to baseline
Collagen synthesis (cell cultures): decreases
Collagenase expression (cell cultures): increases
Extracellular matrix deposition (cell cultures): inhibits
NF-κB expression (cell cultures): reduces
Ability to contract a collagen matrix (human fibroblasts; cell cultures): reduced
Matrix metalloprotease-1 (collagenase) production (human fibroblasts; cell cultures): increased
Fibroblast proliferation induced by ET-1 (human fibroblasts; human fibroblasts): attenuated

COc1cc(OC)nc(O[C@H](C(=O)O)C(OC)(c2ccccc2)c2ccccc2)n1 [Darusentan]
Accumulation of collagen [3]: decreased
IC50 [1, 4]: 221 nM
